According to the supplement of paper PMC11451515:

Key:
Details in all cases: 48 h
NOMO1 [1] = experiment: AUC of viability dose-response curve (% viability x log10 dose units); higher = less sensitive
Summary of the method: (§1)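 Leukemia cells adapted to each medium (500 or 1000 cells/well, 1536-well plates) were exposed to library compounds in DMSO for 48 h at 37°C at 11 threefold doses, 47 μM to 0.79 nM. Luminescence by CellTiter-Glo One was normalised per plate to DMSO and cell-free wells, then fitted with a four-parameter log-logistic curve on log10 dose. Curves above full viability were scaled and quality-control failures removed before area under the curve was integrated by trapezoidal rule.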

P12-Ichikawa [2] = experiment: as above
Summary of the method: as §1

NOMO1 [3] = experiment: cell viability relative to DMSO control; higher = less cytotoxic
Summary of the method: (§2)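 Leukemia cells (NOMO1 or SEM, 500 cells/well; P12-Ichikawa, 1000 cells/well) were seeded in 5 μl in 1536-well plates after at least four passages of adaptation to each medium. They received library compounds in DMSO by pin dosing, 11 threefold points from 47 μM to 0.79 nM. Luminescence with CellTiter-Glo One was read after 48 h at 37°C. Viability is stated per plate relative to DMSO wells, with cell-free wells as background.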

P12-Ichikawa [4] = experiment: as above
Summary of the method: as §2

SEM cells = experiment: as above
Summary of the method: as §2

O=C1\C=C(/OC2=C1C=CC=C2C3=CC=CC=C3)N4CCOCC4
AUC of viability dose-response curve
Details	HPLM + 10% dialyzed FBS	RPMI 5 mM glucose + 10% FBS	RPMI 5 mM glucose + 10% dialyzed FBS
NOMO1 [1]	410	392	390
P12-Ichikawa [2]	432	393	397

cell viability [%]
Details	NOMO1 [3]	P12-Ichikawa [4]	SEM cells
HPLM + 10% dialyzed FBS, 0.000781 µM	95.4	88.3	45.8
HPLM + 10% dialyzed FBS, 0.00234 µM	99.2	93	90.5
HPLM + 10% dialyzed FBS, 0.00702 µM	99.9	95.2	89.2
HPLM + 10% dialyzed FBS, 0.0211 µM	90.4	91.3	80.6
HPLM + 10% dialyzed FBS, 0.0632 µM	91.9	96.3	65.1
HPLM + 10% dialyzed FBS, 0.19 µM	90.4	90.1	89.3
HPLM + 10% dialyzed FBS, 0.569 µM	86.7	94.4	90.3
HPLM + 10% dialyzed FBS, 1.71 µM	63.9	86.5	59
HPLM + 10% dialyzed FBS, 5.12 µM	82.5	87.6	87.3
HPLM + 10% dialyzed FBS, 15.4 µM	66.5	85.3	92.3
HPLM + 10% dialyzed FBS, 46.1 µM	75.6	87.1	58.3
RPMI 5 mM glucose + 10% FBS, 0.000781 µM	82.4	89.1	71.7
RPMI 5 mM glucose + 10% FBS, 0.00234 µM	88	84.5	114
RPMI 5 mM glucose + 10% FBS, 0.00702 µM	89.1	87.6	111
RPMI 5 mM glucose + 10% FBS, 0.0211 µM	84.7	89.8	115
RPMI 5 mM glucose + 10% FBS, 0.0632 µM	79.9	91.5	75.6
RPMI 5 mM glucose + 10% FBS, 0.19 µM	83	86	91.8
RPMI 5 mM glucose + 10% FBS, 0.569 µM	81.7	75.4	110
RPMI 5 mM glucose + 10% FBS, 1.71 µM	77	76.8	74
RPMI 5 mM glucose + 10% FBS, 5.12 µM	82.4	81.2	114
RPMI 5 mM glucose + 10% FBS, 15.4 µM	80.9	74.1	94.6
RPMI 5 mM glucose + 10% FBS, 46.1 µM	76	67.9	79.6
RPMI 5 mM glucose + 10% dialyzed FBS, 0.000781 µM	75.2	86.7	48.9
RPMI 5 mM glucose + 10% dialyzed FBS, 0.00234 µM	86.5	84.4	90
RPMI 5 mM glucose + 10% dialyzed FBS, 0.00702 µM	81.7	84.1	88.3
RPMI 5 mM glucose + 10% dialyzed FBS, 0.0211 µM	83.9	84.6	94.4
RPMI 5 mM glucose + 10% dialyzed FBS, 0.0632 µM	87.4	89.7	66.7
RPMI 5 mM glucose + 10% dialyzed FBS, 0.19 µM	79.7	84.1	80
RPMI 5 mM glucose + 10% dialyzed FBS, 0.569 µM	82.3	86	86.5
RPMI 5 mM glucose + 10% dialyzed FBS, 1.71 µM	66.1	77.2	61.9
RPMI 5 mM glucose + 10% dialyzed FBS, 5.12 µM	89.8	82.4	101
RPMI 5 mM glucose + 10% dialyzed FBS, 15.4 µM	79.1	80.3	84.7
RPMI 5 mM glucose + 10% dialyzed FBS, 46.1 µM	88.1	74.1	62.7
